Publication PMC8533333, “Melatonin Analogues Potently Inhibit MAO-B and Protect PC12 Cells against Oxidative Stress” (Antioxidants, 2021)

How the values were obtained:
[1] = target: T1, Human recombinant MAO-B (hMAO-B) (Homo sapiens, UniProt P27338); assay: MAO-B enzyme assay (Amplex Red, resorufin fluorescence); assay type: biochemical; details: for inhibition at 10 µM: single dose 10 µM; for Selectivity Index (SI): IC50 (MAO-A)/IC50 (MAO-B); for IC50: five doses 10-0.001 µM, triplicate
T1 construct: purchased Sigma Aldrich; host or cells: insect cells
T1 sequence (P27338 1-520): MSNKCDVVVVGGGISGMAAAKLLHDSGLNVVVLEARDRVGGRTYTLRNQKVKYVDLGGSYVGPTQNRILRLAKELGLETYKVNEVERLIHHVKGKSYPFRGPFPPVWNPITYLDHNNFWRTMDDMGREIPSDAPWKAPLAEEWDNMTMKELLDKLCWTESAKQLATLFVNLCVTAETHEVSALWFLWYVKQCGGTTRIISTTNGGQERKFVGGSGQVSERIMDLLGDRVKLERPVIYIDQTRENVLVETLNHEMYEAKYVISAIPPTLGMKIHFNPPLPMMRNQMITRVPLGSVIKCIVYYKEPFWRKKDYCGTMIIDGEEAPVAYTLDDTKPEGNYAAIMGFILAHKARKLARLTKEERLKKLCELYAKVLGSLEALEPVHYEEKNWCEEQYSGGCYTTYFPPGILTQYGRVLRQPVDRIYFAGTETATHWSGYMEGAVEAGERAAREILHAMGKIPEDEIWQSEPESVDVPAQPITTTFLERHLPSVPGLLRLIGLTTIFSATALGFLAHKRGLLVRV
Method: (§1) Biological evaluation of the synthesized melatonin derivatives over both MAO-A and MAO-B was performed as reported previously. A detailed description of the protocol is in the Supplementary Materials.
First, the synthesized melatonin analogues (3a–x) were biologically evaluated over an MAO-B recombinant enzyme. The experiment was performed using Amplex® Red reagent technology. This technology offers quantitative enzyme activity sensitive detection, a wider dynamic range, and fluorescence emission outside the range of compound autofluorescence (if any). The Amplex® Red reagent is a colorless substrate that reacts with H2O2 in a 1:1 stoichiometry to produce a highly fluorescent resorufin; therefore, the induced inhibitory effects of the melatonin analogues over MAO-B were examined via spectrophotometry where the fluorescence rate of resorufin dye formation was measured.
Accordingly, compounds 3n, 3r, and 3u–w were further tested to determine their IC50 values over MAO-B in triplicate from the dose–response inhibition curves using Sigma-Plot software 13.0.
(§2) 6. Materials and methods of monoamine oxidase (MAO) enzyme assay
The inhibitory activity of MAO-A, B enzyme of the compounds was evaluated based on previously described method. The MAO activity was measured in relative fluorescence units (RFU) evoked by peroxidase-catalyzed oxidation of Amplex Red® to resorufin, in which H2O2 generated by MAO reaction was used as the […]. Human recombinant MAO-A (hMAO-A) and MAO-B (hMAO-B) enzyme expressed in insect cells were obtained from Sigma Aldrich. The 2 μL of test compound in DMSO (final concentration: 1 nM – 10 μM) was treated with 98 μL of hMAO enzyme solution in 50 mM sodium phosphate buffer (pH 7.4, final protein amounts: ~1.25 μg protein/well for MAO-A and ~2.5 μg protein/well for MAO -B) on 96-well black plate and incubated for 15 min at 37 °C. Then 100 μL of reaction working solution which is mixed solution of 400 μM Amplex Red® (Cayman, final concentration: 200 μM), 2 U/mL horseradish peroxidase ( Sigma-Aldrich, final concentration: 1 U/mL) and 2 mM substrate ( p-tyramine for MAO -A, benzylamine for MAO -B, Sigma-Aldrich, final concentration: 1 mM) in 50 mM sodium phosphate buffer (pH 7.4) were added and incubated for 20 min at 37 °C in the dark. The fluorescent intensity was quantified using a microplate reader (SpectraMax®i3, Molecular Device) with an excitation at 545 nm and an emission at 590 nm. The 50% inhibitory concentrations (IC50) of compounds were determined as the mean ± S.E.M. in triplicate from the dose-response inhibition curves using SigmaPlot® 13.0. […]

[2] = target: T2, Human recombinant MAO-A (hMAO-A) (Homo sapiens, UniProt P21397); assay: MAO-A enzyme assay (Amplex Red), selectivity; assay type: biochemical
T2 construct: purchased Sigma Aldrich; host or cells: insect cells
T2 sequence (P21397 1-527): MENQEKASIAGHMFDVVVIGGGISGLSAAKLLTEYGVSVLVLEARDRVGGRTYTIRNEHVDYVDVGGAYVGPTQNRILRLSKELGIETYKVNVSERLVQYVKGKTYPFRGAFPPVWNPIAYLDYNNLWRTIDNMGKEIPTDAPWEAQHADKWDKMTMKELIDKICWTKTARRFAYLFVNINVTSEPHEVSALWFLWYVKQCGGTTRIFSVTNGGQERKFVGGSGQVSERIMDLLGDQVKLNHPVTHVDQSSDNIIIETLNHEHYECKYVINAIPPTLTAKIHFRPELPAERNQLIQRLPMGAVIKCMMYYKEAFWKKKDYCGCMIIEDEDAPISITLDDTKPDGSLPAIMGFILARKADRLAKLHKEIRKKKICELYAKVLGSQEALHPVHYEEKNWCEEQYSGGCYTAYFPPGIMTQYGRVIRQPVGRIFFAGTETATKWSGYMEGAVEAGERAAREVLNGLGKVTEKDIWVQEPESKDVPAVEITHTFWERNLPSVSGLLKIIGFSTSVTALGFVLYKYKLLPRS
Method: as §1, §2
The inhibitory activity of MAO-A, B enzyme of the compounds was evaluated based on previously described method. The MAO activity was measured in relative fluorescence units (RFU) evoked by peroxidase-catalyzed oxidation of Amplex Red® to resorufin, in which H2O2 generated by MAO reaction was used as the […]. Human recombinant MAO-A (hMAO-A) and MAO-B (hMAO-B) enzyme expressed in insect cells were obtained from Sigma Aldrich. The 2 μL of test compound in DMSO (final concentration: 1 nM – 10 μM) was treated with 98 μL of hMAO enzyme solution in 50 mM sodium phosphate buffer (pH 7.4, final protein amounts: ~1.25 μg protein/well for MAO-A and ~2.5 μg protein/well for MAO -B) on 96-well black plate and incubated for 15 min at 37 °C. Then 100 μL of reaction working solution which is mixed solution of 400 μM Amplex Red® (Cayman, final concentration: 200 μM), 2 U/mL horseradish peroxidase ( Sigma-Aldrich, final concentration: 1 U/mL) and 2 mM substrate ( p-tyramine for MAO -A, benzylamine for MAO -B, Sigma-Aldrich, final concentration: 1 mM) in 50 mM sodium phosphate buffer (pH 7.4) were added and incubated for 20 min at 37 °C in the dark. The fluorescent intensity was quantified using a microplate reader (SpectraMax®i3, Molecular Device) with an excitation at 545 nm and an emission at 590 nm. The 50% inhibitory concentrations (IC50) of compounds were determined as the mean ± S.E.M. in triplicate from the dose-response inhibition curves using SigmaPlot® 13.0.
monoamine oxidase inhibitors. Bioorganic & medicinal chemistry 2015, 23, 6486-6496,

[3] = system: MAO-B; design: method as in PMID 32752896; details: cited from earlier work

Row | SMILES | inhibition at 10 µM [1] | melting point | also measured
1 | O=C(Nc1ccc2[nH]ccc2c1)c1ccccc1Cl [3o, 2-Chloro-N-(1H-indol-5-yl)benzamide] | 2.39 ± 0.31% |  | 
2 | O=C(Nc1ccc2[nH]ccc2c1)c1ccc(C(F)(F)F)cc1 [3v, N-(1H-indol-5-yl)-4-(trifluoromethyl)benzamide] | 91.22 ± 0.11% | 206 to 207 °C | IC50 [2]: > 100 µM; Selectivity Index (SI) [1]: >151; IC50 [1]: 0.66 µM
3 | O=C(Nc1ccc2[nH]ccc2c1)c1cccc(OC(F)(F)F)c1 [3s, N-(1H-indol-5-yl)-3-(trifluoromethoxy)benzamide] | 68.34 ± 0.25% | 130 to 132 °C | 
4 | O=C(Nc1ccc2[nH]ccc2c1)c1cc([N+](=O)[O-])cc([N+](=O)[O-])c1 [3e, N-(1H-indol-5-yl)-3,5-dinitrobenzamide] | 2.75 ± 0.2% |  | 
5 | O=C(Nc1ccc2[nH]ccc2c1)c1cc(Cl)cc(Cl)c1 [3w, 3,5-Dichloro-N-(1H-indol-5-yl)benzamide] | 72.63 ± 0.32% | 199 to 201 °C | IC50 [2]: > 100 µM; Selectivity Index (SI) [1]: >41; IC50 [1]: 2.41 µM
6 | O=C(Nc1ccc2[nH]ccc2c1)c1ccc(Cl)cc1 [3p, 4-Chloro-N-(1H-indol-5-yl)benzamide] | 57.98 ± 0.07% |  | 
7 | O=C(Nc1ccc2c(ccn2C(=O)c2cccc(F)c2)c1)c1cnccn1 [N-(1-(3-fluorobenzoyl)-1H-indol-5-yl)pyrazine-2-carboxamide] |  |  | IC50 [3]: 0.78 µM; Ki ([3]; competitive): 0.0945 µM
8 | O=C(Nc1ccc2[nH]ccc2c1)c1cccc(C(F)(F)F)c1 [3u, N-(1H-indol-5-yl)-3-(trifluoromethyl)benzamide] | 85.12 ± 0.22% | 148 to 150 °C | IC50 [2]: > 100 µM; Selectivity Index (SI) [1]: >83; IC50 [1]: 1.2 µM
9 | C#CCN[C@@H]1CCc2ccccc21 [rasagiline, reference compound] |  |  | Selectivity Index (SI) [1]: > 50
10 | N#Cc1cccc(C(=O)Nc2ccc3[nH]ccc3c2)c1 [3m, 3-Cyano-N-(1H-indol-5-yl)benzamide] | 8.33 ± 0.59% | 188 to 189 °C | 
11 | O=C(Nc1ccc2[nH]ccc2c1)c1ccccc1F [3k, 2-Fluoro-N-(1H-indol-5-yl)benzamide] | 37.86 ± 0.33% | 179 to 181 °C | 
12 | O=C(Nc1ccc2[nH]ccc2c1)c1c(F)cccc1F [3h, 2,6-Difluoro-N-(1H-indol-5-yl)benzamide] | -0.02 ± 0.26% | 236 to 237 °C | 
13 | O=C(Nc1ccc2[nH]ccc2c1)c1ccc(Cl)cc1Cl [3d, 2,4-Dichloro-N-(1H-indol-5-yl)benzamide] | 22.9 ± 0.7% | 161 to 162 °C | 
14 | O=C(Nc1ccc2[nH]ccc2c1)c1ccc([N+](=O)[O-])cc1 [3g, N-(1H-indol-5-yl)-4-nitrobenzamide] | 61 ± 0.69% | 262 to 264 °C | 
15 | O=C(Nc1ccc2[nH]ccc2c1)c1ccccc1Br [3b, 2-Bromo-N-(1H-indol-5-yl)benzamide] | 0.27 ± 0.81% | 231 to 233 °C | 
16 | O=C(Nc1ccc2[nH]ccc2c1)c1cccc([N+](=O)[O-])c1 [3f, N-(1H-indol-5-yl)-3-nitrobenzamide] | 54.25 ± 0.37% | 214 to 215 °C | 
17 | O=C(Nc1ccc2[nH]ccc2c1)c1cccc(F)c1 [3i, 3-Fluoro-N-(1H-indol-5-yl)benzamide] | 35.3 ± 0.76% | 166 to 168 °C | 
18 | O=C(Nc1ccc2[nH]ccc2c1)c1ccccc1 [3a, N-(1H-indol-5-yl)benzamide] | 14.9 ± 0.8% |  | 
19 | CC(C)(C)c1ccc(C(=O)Nc2ccc3[nH]ccc3c2)cc1 [3q, 4-(Tert-butyl)-N-(1H-indol-5-yl)benzamide] | 50.01 ± 0.04% | 189 to 190 °C | 
20 | O=C(Nc1ccc2[nH]ccc2c1)c1ccc(OC(F)(F)F)cc1 [3t, N-(1H-indol-5-yl)-4-(trifluoromethoxy)benzamide] | 63.23 ± 0.45% | 195 to 196 °C | 
21 | O=C(Nc1ccc2[nH]ccc2c1)c1c(Cl)cccc1Cl [3x, 2,6-Dichloro-N-(1H-indol-5-yl)benzamide] | 0.89 ± 0.31% | 221 to 223 °C | 
22 | O=C(Nc1ccc2[nH]ccc2c1)c1ccc(F)cc1C(F)(F)F [3l, 4-Fluoro-N-(1H-indol-5-yl)-2-(trifluoromethyl)benzamide] | 1.49 ± 0.26% | 153 to 154 °C | 
23 | O=C(Nc1ccc2[nH]ccc2c1)c1ccc(Br)cc1 [3c, 4-Bromo-N-(1H-indol-5-yl)benzamide] | 37.1 ± 0.7% | 209 to 210 °C | 
24 | O=C(Nc1ccc2[nH]ccc2c1)c1ccc(F)cc1 [3j, 4-Fluoro-N-(1H-indol-5-yl)benzamide] | 58.3 ± 1.02% |  | 
